According to US20260242395A1, “AMINOHETEROARYL KINASE INHIBITORS” (ALLORION THERAPEUTICS INC, priority 2022, published 2026):
pIC50: −log10 of the molar value.

Assays:
Format in all cases: biochemical
CDK1/CyclinB = target: T1, CDK1/CyclinB (Homo sapiens, UniProt P06493); experiment: CDK1/CyclinB kinase inhibitory activity (Caliper mobility shift); conditions: enzyme 3 nM, ATP 20 μM, 28° C. 30 min; read-out: CDK1/Cyclin B1 IC50
T1 construct: purchased Millipore 14-450M
Method: CDK1/CyclinB kinase inhibitory activity (IC50): 5 μl of various dilutions of test compound in 1× kinase buffer (50 mM HEPES pH 7.5, 10 mM MgCl2, 2 mM DTT and 0.01% Brij-35) was mixed with 10 μL of CDK1/CyclinB (Millipore, 14-450M #, final concentration 3 nM in 1× Kinase buffer) in 384 plates and incubated at room temperature for 10 min. To initiate each reaction, 10 μL of peptide solution containing fluorescently-labeled-peptide 18(5-FAM-QSPKKG-CONH2) (GL, 114202 #, final concentration 3000 nM) and ATP (final concentration 20 μM) in 1× Kinase buffer was added to each of the wells containing test compound and CDK1/CyclinB mixture. The reaction is then allowed to proceed at 28° C. for 30 min and terminated by the addition of 25 μL stop buffer (100 mM HEPES pH 7.5, 50 mM EDTA, 0.2% Coating Reagent #3 (Perkin Elmer, 760050 #) and 0.015% Brij-35).
(§1) Following the kinase reaction, Caliper EZ reader II (Downstream voltages: −500V, Upstream voltages: −2250V, Base pressure −0.5 PSI, Screen pressure −1.2 PSI) was used to separate the phosphorylated (product) and the unphosphorylated (substrate) fluorescently-labeled peptide 18 based on their different mobility. Both substrate and product were measured and the ratio of these values were used to generate % conversion by Caliper EZ reader II. These conversion values were then transformed into % inhibition of kinase activity using the formula: % Inhibition=[(MA−X)/(MA−MI)]×100% where MA=conversion value of DMSO only controls, MI=conversion value of no enzyme controls and X=conversion value at any given compound dose. IC50 values were then calculated by plotting dose-response curves and then using the XLfit application in Excel software.

CDK7/CyclinH/MAT1 = target: T2, CDK7/CyclinH/MAT1 (Homo sapiens, UniProt P50613); experiment: CDK7/CyclinH/MAT1 kinase inhibitory activity (Caliper mobility shift); conditions: enzyme 12.5 nM, ATP 70 μM, 28° C. 30 min; read-out: CDK7/Cyclin H/MAT1 IC50
T2 construct: purchased Millipore 14-476M
T2 sequence (P50613 whole entry): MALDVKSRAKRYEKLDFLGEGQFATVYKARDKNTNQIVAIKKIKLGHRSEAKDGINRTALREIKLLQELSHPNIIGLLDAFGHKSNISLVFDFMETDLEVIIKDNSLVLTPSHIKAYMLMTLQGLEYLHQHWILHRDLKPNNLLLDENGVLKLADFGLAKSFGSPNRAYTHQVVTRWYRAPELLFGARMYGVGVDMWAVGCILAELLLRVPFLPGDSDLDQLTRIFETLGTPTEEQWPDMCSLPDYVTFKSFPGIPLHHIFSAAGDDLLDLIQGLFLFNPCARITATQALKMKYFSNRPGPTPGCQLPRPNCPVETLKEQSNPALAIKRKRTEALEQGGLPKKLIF
T2 sequence (P51946 whole entry partner): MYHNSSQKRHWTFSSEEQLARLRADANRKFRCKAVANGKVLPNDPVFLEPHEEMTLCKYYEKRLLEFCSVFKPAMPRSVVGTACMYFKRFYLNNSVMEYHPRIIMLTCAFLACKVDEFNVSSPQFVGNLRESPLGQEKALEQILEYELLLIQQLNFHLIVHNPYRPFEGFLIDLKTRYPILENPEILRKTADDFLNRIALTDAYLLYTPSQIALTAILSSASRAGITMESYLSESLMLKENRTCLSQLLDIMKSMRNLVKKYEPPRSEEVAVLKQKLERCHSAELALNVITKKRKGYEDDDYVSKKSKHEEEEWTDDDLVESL
T2 sequence (P51948 whole entry partner): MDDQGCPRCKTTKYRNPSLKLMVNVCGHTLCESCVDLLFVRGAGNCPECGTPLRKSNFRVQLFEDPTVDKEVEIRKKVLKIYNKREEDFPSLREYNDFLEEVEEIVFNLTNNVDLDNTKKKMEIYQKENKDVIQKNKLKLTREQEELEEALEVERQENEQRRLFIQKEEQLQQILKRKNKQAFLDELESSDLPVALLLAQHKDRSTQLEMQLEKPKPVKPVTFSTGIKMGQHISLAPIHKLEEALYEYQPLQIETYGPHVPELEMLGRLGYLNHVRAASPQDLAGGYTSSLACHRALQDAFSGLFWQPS
Method: (§2) CDK7/CyclinH/MAT1 kinase inhibitory activity (IC50): 5 μl of various dilutions of test compound in 1× kinase buffer (20 mM HEPES, pH 7.5, 10 mM MgCl2, 2 mM DTT and 0.01% Triton X-100) was mixed with 10 μL of CDK7/CyclinH/MAT1 (Millipore, 14-476M #, final concentration 12.5 nM in 1× Kinase buffer) in 384 plates and incubated at room temperature for 10 min. To initiate each reaction, 10 μL of peptide solution containing fluorescently-labeled-peptide CTD3 (5-FAM-[…], GL, SY346885 #, final concentration 3000 nM) and ATP (final concentration 70 μM) in 1× Kinase buffer was added to each of the wells containing test compound and CDK7/CyclinH/MAT1 mixture. The reaction is then allowed to proceed at 28° C. for 30 min and terminated by the addition of 25 μL stop buffer (100 mM HEPES pH 7.5, 50 mM EDTA, 0.2% Coating Reagent #3 (Perkin Elmer, 760050 #) and 0.015% Brij-35).
as §1, with “the phosphoiylated” for “the phosphorylated”, “peptide CTD3” for “peptide 18”

CDK9/CyclinT1 = target: T3, CDK9/CyclinT1 (Homo sapiens, UniProt P50750); experiment: CDK9/CyclinT1 kinase inhibitory activity (Caliper mobility shift); conditions: enzyme 12.5 nM, ATP 10M, 28° C. 30 min; read-out: CDK9/Cyclin T1 IC50
T3 construct: purchased Millipore 14-685M
T3 sequence (P50750 whole entry): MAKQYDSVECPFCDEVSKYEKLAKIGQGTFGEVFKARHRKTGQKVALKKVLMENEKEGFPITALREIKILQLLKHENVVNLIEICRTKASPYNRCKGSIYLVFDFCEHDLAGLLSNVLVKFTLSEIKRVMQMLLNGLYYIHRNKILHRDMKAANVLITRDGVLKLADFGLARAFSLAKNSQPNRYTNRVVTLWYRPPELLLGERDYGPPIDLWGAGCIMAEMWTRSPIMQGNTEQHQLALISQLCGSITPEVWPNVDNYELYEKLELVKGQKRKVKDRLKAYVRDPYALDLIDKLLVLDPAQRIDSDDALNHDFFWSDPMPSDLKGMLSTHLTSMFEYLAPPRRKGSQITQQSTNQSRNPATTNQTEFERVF
T3 sequence (O60563 whole entry partner): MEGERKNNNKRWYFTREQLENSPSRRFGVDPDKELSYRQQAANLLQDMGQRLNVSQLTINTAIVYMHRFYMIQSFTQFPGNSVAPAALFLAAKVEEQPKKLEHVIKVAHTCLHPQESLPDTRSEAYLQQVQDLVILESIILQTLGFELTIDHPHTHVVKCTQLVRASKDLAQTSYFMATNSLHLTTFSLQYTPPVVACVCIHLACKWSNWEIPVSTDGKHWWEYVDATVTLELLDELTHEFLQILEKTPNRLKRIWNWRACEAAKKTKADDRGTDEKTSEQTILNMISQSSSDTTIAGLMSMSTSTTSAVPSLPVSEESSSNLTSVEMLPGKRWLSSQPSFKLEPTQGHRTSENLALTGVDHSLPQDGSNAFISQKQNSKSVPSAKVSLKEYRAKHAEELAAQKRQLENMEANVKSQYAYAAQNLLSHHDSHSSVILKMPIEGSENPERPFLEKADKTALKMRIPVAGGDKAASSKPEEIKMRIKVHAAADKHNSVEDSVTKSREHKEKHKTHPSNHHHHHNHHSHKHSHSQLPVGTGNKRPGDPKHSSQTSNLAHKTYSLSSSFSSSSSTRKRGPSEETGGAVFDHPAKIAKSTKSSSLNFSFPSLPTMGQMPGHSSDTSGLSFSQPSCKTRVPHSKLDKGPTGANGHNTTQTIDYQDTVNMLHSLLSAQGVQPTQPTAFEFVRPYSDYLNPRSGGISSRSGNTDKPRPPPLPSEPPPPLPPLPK
Method: as §2, with “CDK9/CyclinT1” for “CDK7/CyclinH/MAT1”, “14-685M” for “14-476M”, “fluorescently-labeled -peptide” for “fluorescently-labeled-peptide”, “[…])” for “70 μM)”
as §1, with “CTD3” for “18”

T1 sequence (P06493 whole entry): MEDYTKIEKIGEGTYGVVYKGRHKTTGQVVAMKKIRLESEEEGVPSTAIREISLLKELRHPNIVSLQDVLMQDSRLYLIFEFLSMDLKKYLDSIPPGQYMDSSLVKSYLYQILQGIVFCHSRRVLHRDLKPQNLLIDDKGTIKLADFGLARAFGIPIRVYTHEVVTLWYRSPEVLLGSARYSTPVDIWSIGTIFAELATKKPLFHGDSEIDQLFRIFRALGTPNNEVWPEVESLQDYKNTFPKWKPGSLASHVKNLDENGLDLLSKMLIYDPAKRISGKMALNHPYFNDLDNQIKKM
T1 sequence (P14635 whole entry partner): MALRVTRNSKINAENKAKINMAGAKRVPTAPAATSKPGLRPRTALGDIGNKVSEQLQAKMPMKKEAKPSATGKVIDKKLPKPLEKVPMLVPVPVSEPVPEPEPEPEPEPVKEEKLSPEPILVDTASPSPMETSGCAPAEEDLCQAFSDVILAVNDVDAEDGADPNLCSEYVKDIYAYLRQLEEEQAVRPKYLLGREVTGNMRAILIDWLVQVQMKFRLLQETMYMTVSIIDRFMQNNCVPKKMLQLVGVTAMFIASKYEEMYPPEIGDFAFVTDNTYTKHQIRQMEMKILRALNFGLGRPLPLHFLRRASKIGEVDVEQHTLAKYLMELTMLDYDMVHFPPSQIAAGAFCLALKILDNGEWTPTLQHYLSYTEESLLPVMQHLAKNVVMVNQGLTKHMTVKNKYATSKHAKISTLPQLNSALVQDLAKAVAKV

Structure (SMILES)	pIC50 (CDK1/CyclinB)	pIC50 (CDK7/CyclinH/MAT1)	pIC50 (CDK9/CyclinT1)
CC(C)n1c(C(C)(C)O)nc2c(F)cc(-c3cc(N[C@@H]4CCOC[C@H]4O)ncc3Cl)cc21 [Example 12, (3S,4R)-4-((5-chloro-4-(4-fluoro-2-(2-hydroxypropan-2-yl)-1-isopropyl-1H-benzo[d]imidazol-6-yl)pyridin-2-yl)amino)tetrahydro-2H-pyran-3-ol]	≤ 6.00	≤ 6.00	6.00 to 7.00
CC(C)(N)c1cnc2c(F)cc(-c3nc(N[C@@H]4CCOC[C@H]4O)ncc3Cl)cc2c1 [Example 14, (3S,4R)-4-((4-(3-(2-aminopropan-2-yl)-8-fluoroquinolin-6-yl)-5-chloropyrimidin-2-yl)amino)tetrahydro-2H-pyran-3-ol]	7.00 to 8.00	6.00 to 7.00	6.00 to 7.00
CC(C)(O)c1cnc2c(F)cc(-c3nc(N[C@@H]4CCOC[C@H]4O)ncc3Cl)cc2c1Cl [Example 17, (3S,4R)-4-((5-chloro-4-(4-chloro-8-fluoro-3-(2-hydroxypropan-2-yl)quinolin-6-yl)pyrimidin-2-yl)amino)tetrahydro-2H-pyran-3-ol]	6.00 to 7.00	≤ 6.00	6.00 to 7.00
Cc1[nH]cnc1-c1cnc2c(F)cc(-c3nc(N[C@@H]4CCOC[C@H]4O)ncc3Cl)cc2c1 [Example 18, (3S,4R)-4-((5-chloro-4-(8-fluoro-3-(5-methyl-1H-imidazol-4-yl)quinolin-6-yl)pyrimidin-2-yl)amino)tetrahydro-2H-pyran-3-ol]	6.00 to 7.00	≤ 6.00	≤ 6.00
O[C@@H]1COCC[C@H]1Nc1ncc(Cl)c(-c2cc(F)c3c(c2)N2CCNC[C@@H]2CO3)n1 [Example 19, (3S,4R)-4-((5-chloro-4-((R)-7-fluoro-1,2,3,4,4a,5-hexahydrobenzo[b]pyrazino[1,2-d][1,4]oxazin-9-yl)pyrimidin-2-yl)amino)tetrahydro-2H-pyran-3-ol]	7.00 to 8.00	7.00 to 8.00	7.00 to 8.00
O[C@@H]1COCC[C@H]1Nc1ncc(Cl)c(-c2cc(F)c3ncc4c(c3c2)CNC2(CC2)C4)n1 [Example 21, (3S,4R)-4-((5-chloro-4-(7-fluoro-1,4-dihydro-2H-spiro[benzo[c][2,6]naphthyridine-3,1′-cyclopropan]-9-yl)pyrimidin-2-yl)amino)tetrahydro-2H-pyran-3-ol]	6.00 to 7.00	≤ 6.00	6.00 to 7.00
CC(C)(O)c1cnc2c(F)cc(-c3nc(N[C@@H]4CCOC[C@H]4O)ncc3F)cc2c1Cl [Example 22, (3S,4R)-4-((4-(4-chloro-8-fluoro-3-(2-hydroxypropan-2-yl)quinolin-6-yl)-5-fluoropyrimidin-2-yl)amino)tetrahydro-2H-pyran-3-ol]	6.00 to 7.00	6.00 to 7.00	6.00 to 7.00
Cc1c(C(C)(C)O)cnc2c(F)cc(-c3nc(N[C@@H]4CCOC[C@H]4O)ncc3F)cc12 [Example 23, (3S,4R)-4-((5-fluoro-4-(8-fluoro-3-(2-hydroxypropan-2-yl)-4-methylquinolin-6-yl)pyrimidin-2-yl)amino)tetrahydro-2H-pyran-3-ol]	6.00 to 7.00	7.00 to 8.00	6.00 to 7.00
CC1(C)Cc2cnc3c(F)cc(-c4nc(N[C@@H]5CCOC[C@H]5O)ncc4F)cc3c2CN1 [Example 24, (3S,4R)-4-((5-fluoro-4-(7-fluoro-3,3-dimethyl-1,2,3,4-tetrahydrobenzo[c][2,6]naphthyridin-9-yl)pyrimidin-2-yl)amino)tetrahydro-2H-pyran-3-ol]	6.00 to 7.00	6.00 to 7.00	7.00 to 8.00
O[C@@H]1COCC[C@H]1Nc1cc(-c2cc(F)c3ncc4c(c3c2)CNCC4)c(Cl)cn1 [Example 25]	7.00 to 8.00	7.00 to 8.00	7.00 to 8.00
CC(C)(N)c1cnc2ccc(-c3nc(N[C@@H]4CCOC[C@H]4O)ncc3Cl)cc2c1 [Example 26]	6.00 to 7.00	≤ 6.00	6.00 to 7.00
O[C@@H]1COCC[C@H]1Nc1ncc(Cl)c(-c2cc(F)c3ncc(C4(O)CC4)cc3c2)n1 [Example 29]	6.00 to 7.00	≤ 6.00	6.00 to 7.00
CC1(C)Cc2cnc3c(F)cc(-c4nc(N[C@@H]5CCOC[C@H]5O)ncc4Cl)cc3c2CN1 [Example 30]	6.00 to 7.00	≤ 6.00	7.00 to 8.00
CNC(C)(C)c1cnc2c(F)cc(-c3nc(N[C@@H]4CCOC[C@H]4O)ncc3Cl)cc2c1 [Example 36]	≤ 6.00	≤ 6.00	6.00 to 7.00
Cc1nc2c(F)cc(-c3nc(N[C@@H]4CCOC[C@H]4O)ncc3Cl)cc2c2c1CCN(C)C2 [Example 37]	≤ 6.00	≤ 6.00	≤ 6.00
CC(C)(O)c1cnc2c(F)cc(-c3nc(N[C@@H]4CCOC[C@H]4O)ncc3C#N)cc2c1Cl [Example 41]	≤ 6.00	≤ 6.00	≤ 6.00
CC1(C)Cc2cnc3c(F)cc(-c4nc(N[C@@H]5CCOC[C@H]5O)ncc4C#N)cc3c2CN1 [Example 49]	≤ 6.00	≤ 6.00	6.00 to 7.00
CC(C)(O)c1cnc2c(F)cc(-c3nc(Nc4ccc(-c5c[nH]cn5)cn4)ncc3F)cc2c1Cl [Example 52]	≤ 6.00	≤ 6.00	≤ 6.00
O[C@@H]1COCC[C@H]1Nc1ncc(F)c(-c2cc(F)c3ncc4c(c3c2)CNC2(CC2)C4)n1 [Example 56]	7.00 to 8.00	7.00 to 8.00	7.00 to 8.00
Cc1c(C(C)(C)O)cnc2c(C)cc(-c3nc(N[C@@H]4CCOC[C@H]4O)ncc3Cl)cc12 [Example 58]	≤ 6.00	≤ 6.00	≤ 6.00
[2H]C([2H])([2H])C(O)(c1cc2cc(-c3nc(N[C@@H]4CCOC[C@H]4O)ncc3Cl)cc(F)c2nc1C)C([2H])([2H])[2H] [Example 60, (3S,4R)-4-((5-chloro-4-(8-fluoro-3-(2-hydroxypropan-2-yl-1,1,1,3,3,3-d6)-2-methylquinolin-6-yl)pyrimidin-2-yl)amino)tetrahydro-2H-pyran-3-ol]	≤ 6.00	≤ 6.00	6.00 to 7.00
